Assay results: patent publication US11878063B2, “Engineered ligands and uses thereof” (Children's Medical Center Corporation, priority 2019, dated 2024)

Columns and labels:
human PTHR1 = biological target: T1, human PTHR1 (Homo sapiens, UniProt Q03431); experiment: cAMP induction (cAMP-responsive luciferase) in HEK293 cells stably expressing human PTHR1; format: cell-based; conditions: maximal cAMP response, normalized
T1 construct: expressed in transfected cells
T1 sequence (Q03431 27-593): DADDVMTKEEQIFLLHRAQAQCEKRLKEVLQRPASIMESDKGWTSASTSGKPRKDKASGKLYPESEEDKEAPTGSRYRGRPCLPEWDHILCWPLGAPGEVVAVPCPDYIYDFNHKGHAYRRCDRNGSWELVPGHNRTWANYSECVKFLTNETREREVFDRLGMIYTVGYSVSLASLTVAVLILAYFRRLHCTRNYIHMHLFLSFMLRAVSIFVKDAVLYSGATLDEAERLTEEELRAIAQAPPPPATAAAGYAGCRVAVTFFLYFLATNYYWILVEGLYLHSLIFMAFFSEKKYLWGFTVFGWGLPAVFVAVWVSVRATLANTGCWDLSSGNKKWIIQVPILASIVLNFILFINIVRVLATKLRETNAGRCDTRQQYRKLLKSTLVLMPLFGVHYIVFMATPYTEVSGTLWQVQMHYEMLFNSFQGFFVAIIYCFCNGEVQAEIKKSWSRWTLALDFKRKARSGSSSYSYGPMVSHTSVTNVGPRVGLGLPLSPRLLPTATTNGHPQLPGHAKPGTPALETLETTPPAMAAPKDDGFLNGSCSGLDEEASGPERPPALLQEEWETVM
Description: (§1) Measurement of cAMP response. These assays were performed as previously described^27. […] Confluent monolayers of cells were pre-incubated with CO2 independent medium containing D-luciferin (0.5 mM) at 37° C. until a stable baseline level of luminescence was established (20 min). Varying concentrations of ligands were then added, and the time course of luminescence response was recorded using BioTek plate reader.
(§2) Data calculations. Data were processed using Microsoft Excel and GraphPad Prism 6. Data from cAMP dose-response assays were analyzed using a sigmoidal dose-response model with variable slope. Data sets were statistically compared by using Student's t test (two-tailed) assuming unequal variances for the two sets.

PTHR2 = biological target: T2, PTHR2 (Homo sapiens, UniProt P49190); experiment: cAMP induction in HEK293 cells stably expressing human PTHR2; format: cell-based; conditions: maximal cAMP response, normalized
T2 construct: expressed in transfected cells
T2 sequence (P49190 25-550): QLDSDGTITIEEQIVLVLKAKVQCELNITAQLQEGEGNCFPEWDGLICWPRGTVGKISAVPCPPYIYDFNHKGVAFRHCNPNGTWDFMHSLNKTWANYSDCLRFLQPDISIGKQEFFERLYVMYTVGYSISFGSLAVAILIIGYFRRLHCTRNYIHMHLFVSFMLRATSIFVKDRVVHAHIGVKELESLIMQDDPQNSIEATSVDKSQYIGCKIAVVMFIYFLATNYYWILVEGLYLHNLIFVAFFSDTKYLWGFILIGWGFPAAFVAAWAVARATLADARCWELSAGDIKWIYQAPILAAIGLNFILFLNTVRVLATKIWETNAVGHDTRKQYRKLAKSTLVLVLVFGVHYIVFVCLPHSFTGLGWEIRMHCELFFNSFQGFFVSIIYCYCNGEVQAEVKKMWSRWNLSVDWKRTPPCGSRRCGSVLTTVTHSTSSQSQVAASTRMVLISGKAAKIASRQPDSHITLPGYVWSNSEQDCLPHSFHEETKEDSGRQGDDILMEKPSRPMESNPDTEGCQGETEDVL
Description: as §1, §2

rat PTHR1 = biological target: T3, rat PTHR1 (Rattus norvegicus, UniProt P25961); experiment: cAMP induction in HEK293 cells stably expressing rat PTHR1; format: cell-based; conditions: maximal cAMP response, normalized
T3 construct: expressed in transfected cells
T3 sequence (P25961 27-591): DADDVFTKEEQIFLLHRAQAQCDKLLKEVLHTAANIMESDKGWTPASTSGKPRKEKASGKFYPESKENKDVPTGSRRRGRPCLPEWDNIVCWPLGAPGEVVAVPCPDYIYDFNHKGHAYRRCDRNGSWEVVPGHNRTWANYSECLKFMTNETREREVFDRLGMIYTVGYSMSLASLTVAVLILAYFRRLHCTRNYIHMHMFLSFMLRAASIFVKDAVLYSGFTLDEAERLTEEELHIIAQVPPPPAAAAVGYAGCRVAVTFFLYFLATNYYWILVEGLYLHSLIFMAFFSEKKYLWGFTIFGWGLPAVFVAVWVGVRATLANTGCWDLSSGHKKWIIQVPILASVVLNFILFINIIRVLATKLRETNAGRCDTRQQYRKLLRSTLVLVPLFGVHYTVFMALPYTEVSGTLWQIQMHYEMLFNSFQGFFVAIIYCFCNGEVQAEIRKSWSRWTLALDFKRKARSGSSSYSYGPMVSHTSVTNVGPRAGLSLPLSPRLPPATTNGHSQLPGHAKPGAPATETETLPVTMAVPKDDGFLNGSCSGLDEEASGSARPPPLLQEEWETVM
Description: as §1, §2

PTHR1GFP = experiment: cAMP induction in HEK293 cells stably expressing PTHR1GFP; format: cell-based, human
Description: The GFP-PTHR1 fusion was stably expressed in cells that respond to receptor engagement by activation of a cAMP-sensitive version of luciferase. Exposure of these transfectants to PTH(1-11) yielded the expected dose-response curve with half maximal stimulation at ˜200 nM.
(§3) Measurement of cAMP response. These assays were performed as previously described^27. Briefly, HEK-293-derived cell lines that stably express the Glosensor cAMP reporter (Promega Corp.)^30 and PTHR1, a PTHR1 variant, or PTHR2 were seeded into white sided 96 well plates (50,000 cells/well) and grown to confluency. Confluent monolayers of cells were pre-incubated with CO2 independent medium containing D-luciferin (0.5 mM) at 37° C. until a stable baseline level of luminescence was established (20 min). Varying concentrations of ligands were then added, and the time course of luminescence response was recorded using BioTek plate reader. The maximal luminescence response (observed 12-16 min after ligand addition) was used to construct dose-response data sets (Table 4, FIGS. 22A to 22E).
as §2
(§4) While there is no structural information for any VHH bound to PTHR1, a mode of interaction was envisioned between the receptor and VHH-PTH conjugates like that depicted in FIG. 12—Panel c. The portion of PTHR1 encoded by exon 2 is not resolved in structural studies (FIG. 12—Panel d)^13, 14, 17, is not important for ligand binding^18, and in past work has been targeted as a site for receptor modification^18, 19. A construct was generated that encodes a PTHR1 variant in which a 14-residue fragment from exon 2 was replaced with a 14-mer epitope tag from the intracellular protein UBC6e (PTHR16E, FIG. 12—Panel d)^20. A receptor construct in which a pH-sensitive green fluorescent protein variant (GFP) was inserted into the portion of the receptor encoded by exon 2 (PTHR1GFP in FIGS. 17A to 17C)^19. Another version of PTHR1 in which yellow fluorescent protein (YFP) replaces the entire extracellular domain (PTHR1YFPΔECD, FIG. 12—Panel e)^21, was also used.

PTHR1YFPΔECD = experiment: cAMP induction in HEK293 cells stably expressing PTHR1YFPΔECD (YFP replaces extracellular domain); format: cell-based, human
Description: as §3, with “reader.” for “reader. The maximal luminescence response (observed 12-16 min after ligand addition) was used to construct dose-response data sets (Table 4, FIGS. 22A to 22E).”
as §2
as §4, with “The” for “While there is no structural information for any VHH bound to PTHR1, a mode of interaction was envisioned between the receptor and VHH-PTH conjugates like that depicted in FIG. 12—Panel c. The”

[1] = maximal cAMP response, normalized

**Q.** How did the “Max (normalized ± SD), hPTHR1” value (human PTHR1) turn out when `CC[C@H](C)[C@H](NC(=O)[C@H](CCC(=O)O)NC(=O)[C@H](CO)NC(=O)[C@@H](NC(=O)[C@@H](N)CO)C(C)C)C(=O)N[C@@H](CCC(N)=O)C(=O)N[C@@H](CC(C)C)C(=O)N[C@@H](CCSC)C(=O)N[C@@H](Cc1cnc[nH]1)C(=O)N[C@@H](CC(N)=O)C(=O)N[C@@H](CC(C)C)C(=O)NCC(=O)N[C@@H](CCCCN)C(=O)N[C@@H](Cc1cnc[nH]1)C(=O)N[C@@H](CC(C)C)C(=O)N[C@@H](CC(N)=O)C(=O)N[C@@H](CO)C(=O)N[C@@H](CCSC)C(=O)N[C@@H](CCC(=O)O)C(=O)N[C@@H](CCCN=C(N)N)C(=O)N[C@H](C(=O)N[C@@H](CCC(=O)O)C(=O)N[C@@H](Cc1c[nH]c2ccccc12)C(=O)N[C@@H](CC(C)C)C(=O)N[C@@H](CCCN=C(N)N)C(=O)N[C@@H](CCCCN)C(=O)N[C@@H](CCCCN)C(=O)N[C@@H](CC(C)C)C(=O)N[C@@H](CCC(N)=O)C(=O)N[C@@H](CC(=O)O)C(=O)N[C@H](C(=O)N[C@@H](Cc1cnc[nH]1)C(=O)N[C@@H](CC(N)=O)C(=O)N[C@@H](Cc1ccccc1)C(=O)O)C(C)C)C(C)C` [PTH(1-34)] was run?
**A.** 1.00 ± 0.00

**Q.** And the “Max (normalized ± SD), hPTHR2” value (PTHR2)?
**A.** 1 ± 0

**Q.** What about the “Max (normalized ± SD), rPTHR1” value (rat PTHR1) of the same compound?
**A.** 1.00 ± 0.00

**Q.** And the “Max (normalized ± SD), hPTHR1GFP” value (PTHR1GFP; [1])?
**A.** 1.00 ± 0.00

**Q.** What about the EC50 (PTHR1GFP; mean ± SD, Inactive = response <5% of maximal, read-out: EC50, cAMP induction, hPTHR1GFP) of the same compound?
**A.** 0.4 ± 0.8 nM

**Q.** What about the “Max (normalized ± SD), hPTHR1YFPΔECD” value (PTHR1YFPΔECD; [1]) of the same compound?
**A.** 1.00 ± 0.00

**Q.** And the EC50 (PTHR1YFPΔECD; mean ± SD, Inactive = response <5% of maximal, read-out: EC50, cAMP induction, hPTHR1YFPΔECD)?
**A.** 689 ± 301 nM
